Measurements reported in patent US20260021103A1, “IKZF2 AND CK1-ALPHA DEGRADING COMPOUNDS AND USES THEREOF” (President and Fellows of Harvard College, priority 2022, published 2026).

Tests used:
IKZF2 = molecular target: T1, IKZF2 (Homo sapiens, UniProt Q96SW2+Q9UKS7); experiment: Flow cytometry for measuring degradation, HEK293T GFP-POI reporter cells (IKZF2); type: cell-based; details: for IKZF2% degradation at 100 nM / IKZF2% degradation at 1 μM: 24 h, HEK293T GFP reporter; for Dmax: HEK-293T; for Dmax / DC50: Table 3
T1 construct: expressed in transfected cells; host or cells: HEK293T (lentiviral transduction, puromycin selection, FACS sorting)
T1 sequence (Q9UKS7 whole entry): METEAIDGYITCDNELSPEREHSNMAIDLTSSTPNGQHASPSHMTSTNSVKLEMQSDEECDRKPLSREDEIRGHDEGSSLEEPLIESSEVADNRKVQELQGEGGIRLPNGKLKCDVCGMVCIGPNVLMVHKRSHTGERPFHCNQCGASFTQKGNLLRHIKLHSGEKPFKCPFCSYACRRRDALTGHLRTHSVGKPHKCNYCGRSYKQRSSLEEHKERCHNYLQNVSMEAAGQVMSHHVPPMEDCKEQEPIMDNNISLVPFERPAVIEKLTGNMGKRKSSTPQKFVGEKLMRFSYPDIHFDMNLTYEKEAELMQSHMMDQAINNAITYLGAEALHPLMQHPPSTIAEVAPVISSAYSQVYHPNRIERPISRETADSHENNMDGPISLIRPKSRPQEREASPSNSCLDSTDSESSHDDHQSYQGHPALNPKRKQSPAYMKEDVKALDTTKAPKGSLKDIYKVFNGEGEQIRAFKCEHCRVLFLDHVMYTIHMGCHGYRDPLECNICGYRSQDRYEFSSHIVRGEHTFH
T1 sequence (Q96SW2 whole entry): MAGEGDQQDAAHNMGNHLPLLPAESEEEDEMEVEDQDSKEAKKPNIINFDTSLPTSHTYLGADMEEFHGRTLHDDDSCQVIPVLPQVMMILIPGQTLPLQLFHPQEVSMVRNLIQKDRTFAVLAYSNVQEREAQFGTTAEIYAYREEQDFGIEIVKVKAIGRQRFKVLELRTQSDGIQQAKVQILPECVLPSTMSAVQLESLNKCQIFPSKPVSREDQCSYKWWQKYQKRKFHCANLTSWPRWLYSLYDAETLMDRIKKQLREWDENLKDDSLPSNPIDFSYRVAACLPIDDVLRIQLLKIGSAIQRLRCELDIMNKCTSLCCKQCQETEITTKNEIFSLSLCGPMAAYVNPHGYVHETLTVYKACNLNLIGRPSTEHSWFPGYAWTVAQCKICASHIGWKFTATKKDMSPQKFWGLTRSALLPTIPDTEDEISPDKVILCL
T1 sequence (Q16531 whole entry partner): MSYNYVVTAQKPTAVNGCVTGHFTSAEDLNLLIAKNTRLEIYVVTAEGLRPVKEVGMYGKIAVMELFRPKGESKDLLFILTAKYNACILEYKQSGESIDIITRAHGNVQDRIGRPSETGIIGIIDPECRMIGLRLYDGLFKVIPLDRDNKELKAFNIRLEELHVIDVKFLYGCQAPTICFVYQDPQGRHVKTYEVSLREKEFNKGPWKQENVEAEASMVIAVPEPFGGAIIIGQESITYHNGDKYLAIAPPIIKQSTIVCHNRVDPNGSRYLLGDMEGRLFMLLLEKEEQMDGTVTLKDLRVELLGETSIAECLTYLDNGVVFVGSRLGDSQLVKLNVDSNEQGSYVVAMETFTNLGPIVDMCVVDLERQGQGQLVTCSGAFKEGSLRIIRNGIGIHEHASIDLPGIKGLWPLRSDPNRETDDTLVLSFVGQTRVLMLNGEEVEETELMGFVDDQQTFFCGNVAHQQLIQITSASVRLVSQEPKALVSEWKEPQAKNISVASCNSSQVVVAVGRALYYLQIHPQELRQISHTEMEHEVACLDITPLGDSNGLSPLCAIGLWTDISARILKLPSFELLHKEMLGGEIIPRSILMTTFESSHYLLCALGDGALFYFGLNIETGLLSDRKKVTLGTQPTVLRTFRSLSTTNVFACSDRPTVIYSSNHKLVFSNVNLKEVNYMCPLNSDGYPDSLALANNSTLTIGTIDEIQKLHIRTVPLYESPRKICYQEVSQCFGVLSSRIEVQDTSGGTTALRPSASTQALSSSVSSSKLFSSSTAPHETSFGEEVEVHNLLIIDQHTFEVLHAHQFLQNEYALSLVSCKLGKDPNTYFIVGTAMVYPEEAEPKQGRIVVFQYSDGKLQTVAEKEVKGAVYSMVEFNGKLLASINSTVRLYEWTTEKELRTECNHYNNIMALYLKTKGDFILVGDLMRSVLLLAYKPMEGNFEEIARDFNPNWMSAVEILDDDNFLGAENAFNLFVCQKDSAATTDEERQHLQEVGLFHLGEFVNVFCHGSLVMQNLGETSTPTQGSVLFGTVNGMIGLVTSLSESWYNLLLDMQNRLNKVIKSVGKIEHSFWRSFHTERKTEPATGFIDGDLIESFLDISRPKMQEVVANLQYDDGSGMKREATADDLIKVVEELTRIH

IKZF1 = molecular target: T2, IKZF1 (Homo sapiens, UniProt Q13422+Q96SW2); experiment: Flow cytometry for measuring degradation, HEK293T GFP-POI reporter cells (IKZF1); type: cell-based; details: for IKZF1% degradation at 100 nM / IKZF1% degradation at 1 μM: 24 h, HEK293T GFP reporter; for Dmax: HEK-293T, Table 3
T2 construct: expressed in transfected cells; host or cells: HEK293T (lentiviral transduction, puromycin selection, FACS sorting)
T2 sequence (Q13422 whole entry): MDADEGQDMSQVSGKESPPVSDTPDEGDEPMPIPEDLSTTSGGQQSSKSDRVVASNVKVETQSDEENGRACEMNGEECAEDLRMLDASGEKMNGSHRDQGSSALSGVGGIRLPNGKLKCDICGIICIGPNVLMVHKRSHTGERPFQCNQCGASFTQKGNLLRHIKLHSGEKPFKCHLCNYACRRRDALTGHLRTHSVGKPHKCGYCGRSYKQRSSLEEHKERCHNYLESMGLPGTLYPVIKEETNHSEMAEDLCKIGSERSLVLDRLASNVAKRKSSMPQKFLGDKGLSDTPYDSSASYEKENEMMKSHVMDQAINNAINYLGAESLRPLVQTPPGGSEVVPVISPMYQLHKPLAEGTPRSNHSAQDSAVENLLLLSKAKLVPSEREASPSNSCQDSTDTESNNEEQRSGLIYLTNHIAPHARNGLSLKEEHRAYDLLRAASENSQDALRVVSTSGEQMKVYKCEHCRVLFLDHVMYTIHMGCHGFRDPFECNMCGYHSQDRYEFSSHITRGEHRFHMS
T2 sequence (Q96SW2 whole entry): as the sequence (Q96SW2 whole entry) above
T2 sequence (Q16531 whole entry partner): as the sequence (Q16531 whole entry partner) above

CK1α = molecular target: T3, CK1α (Homo sapiens, UniProt P48729+Q96SW2); experiment: Flow cytometry for measuring degradation, HEK293T GFP-POI reporter cells (CK1α); type: cell-based; details: for CK1α % degradation at 100 nM / CK1α % degradation at 1 μM: 24 h, HEK293T GFP reporter; for Dmax: CK1, read-out: Dmax CK1a (%); for Dmax / DC50: Table 3; for DC50: read-out: DC50 CK1a
T3 construct: expressed in transfected cells; host or cells: HEK293T (lentiviral transduction, puromycin selection, FACS sorting)
T3 sequence (P48729 whole entry): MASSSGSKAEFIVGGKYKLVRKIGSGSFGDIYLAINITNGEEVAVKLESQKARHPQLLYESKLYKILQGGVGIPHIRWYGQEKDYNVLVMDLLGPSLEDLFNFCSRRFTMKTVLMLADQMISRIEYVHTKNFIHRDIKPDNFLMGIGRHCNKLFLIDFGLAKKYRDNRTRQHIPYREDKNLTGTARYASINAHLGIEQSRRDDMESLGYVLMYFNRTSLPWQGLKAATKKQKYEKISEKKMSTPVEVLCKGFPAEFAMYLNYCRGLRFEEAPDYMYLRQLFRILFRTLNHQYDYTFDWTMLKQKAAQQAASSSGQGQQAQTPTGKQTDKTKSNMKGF
T3 sequence (Q96SW2 whole entry): as the sequence (Q96SW2 whole entry) above
T3 sequence (Q16531 whole entry partner): as the sequence (Q16531 whole entry partner) above

CK1α and/or IKZF2 = experiment: Panel of reporter cell lines (HEK293T cells expressing protein tagged with eGFP), substrate scope; type: cell-based; details: 100 nM or 1 μM
GSPT1 = GSPT1 (Homo sapiens, UniProt P15170+Q96SW2); experiment: Flow cytometry for measuring degradation, HEK293T GFP-POI reporter cells (GSPT1); type: cell-based; design: expressed in transfected cells; host or cells: HEK293T; details: for GSPT1% degradation at 100 nM / GSPT1% degradation at 1 μM: 24 h, HEK293T GFP reporter; for Dmax: HEK-293T
Sequence of GSPT1 (P15170 whole entry): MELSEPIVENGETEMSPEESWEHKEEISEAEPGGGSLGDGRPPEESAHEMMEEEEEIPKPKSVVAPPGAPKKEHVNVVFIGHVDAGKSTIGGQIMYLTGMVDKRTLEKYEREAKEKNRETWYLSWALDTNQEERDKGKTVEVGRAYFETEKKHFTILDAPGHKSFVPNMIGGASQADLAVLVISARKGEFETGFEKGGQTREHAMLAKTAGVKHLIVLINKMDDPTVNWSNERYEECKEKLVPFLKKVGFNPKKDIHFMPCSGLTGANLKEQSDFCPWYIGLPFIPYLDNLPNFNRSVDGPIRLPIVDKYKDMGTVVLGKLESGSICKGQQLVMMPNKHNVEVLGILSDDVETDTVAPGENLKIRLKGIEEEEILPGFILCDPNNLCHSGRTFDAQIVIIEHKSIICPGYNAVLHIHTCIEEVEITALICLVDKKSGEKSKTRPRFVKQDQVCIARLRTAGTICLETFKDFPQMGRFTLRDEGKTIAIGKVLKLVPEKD
Sequence of GSPT1 (Q96SW2 whole entry): as the sequence (Q96SW2 whole entry) above
Sequence of GSPT1 (Q16531 whole entry partner): as the sequence (Q16531 whole entry partner) above

[1] = system: endometrioid ovarian cancer cell line A2780; experiment: 5-day MTT assay in A2780 cells; type: cell-based; details: A2780, 5-day MTT assay
Procedure: (§1) Viability Assay: 10,000 cells (e.g., MOLM-13 cells, MLL-AF9 leukemic cells or normal BM cells) were plated onto flat-bottom 96-well plates in media with increasing concentration of compound up to […]. […] For measuring viability, Cell-Titer Glo kit (Promega) or MTT kit was used following manufacturer's instructions. For Cell-Titer Glo assay, cells were cooled to room temperature for 20-30 min, 100 μL of the cultured cells were transferred to opaque-white bottom 96-well plates and mixed with 100 μL of Cell-Titer Glo reagent. The mixture was incubated for 15 min at room temperature and read using a Synergy H1 Hybrid reader (BioTek) for luminescence. Data was normalized as percentage viability and graphed by non-linear regression curves in Graph Pad PRISM 7.0.

DLBCL cell line OCI-LY3 = experiment: 5-day MTT assay in OCI-LY3 cells; type: cell-based; details: OCI-LY3, 5-day MTT assay
Procedure: as §1

[2] = system: small cell lung cancer cell line NCI-H1048; experiment: 5-day MTT assay in NCI-H1048 cells; type: cell-based; details: NCI-H1048, 5-day MTT assay
Procedure: as §1

[3] = In vitro solubility in DMSO; type: physicochemical; details: for solubility: DMSO, organic solvent or mixture
MOLM-13 cells = experiment: Cell viability assay in MOLM-13 cells; type: cell-based; details: Homo sapiens, read-out: IC50 (cytotoxicity)
Procedure: Viability Assay: 10,000 cells (e.g., MOLM-13 cells, MLL-AF9 leukemic cells or normal BM cells) were plated onto flat-bottom 96-well plates in media with increasing concentration of compound up to 100 µM. Cells were cultured for 72 h at 37° C. in a 5% CO2 incubator. For measuring viability, Cell-Titer Glo kit (Promega) or MTT kit was used following manufacturer's instructions. For Cell-Titer Glo assay, cells were cooled to room temperature for 20-30 min, 100 μL of the cultured cells were transferred to opaque-white bottom 96-well plates and mixed with 100 μL of Cell-Titer Glo reagent. The mixture was incubated for 15 min at room temperature and read using a Synergy H1 Hybrid reader (BioTek) for luminescence. Data was normalized as percentage viability and graphed by non-linear regression curves in Graph Pad PRISM 7.0.

Row | Structure (SMILES) | IKZF2% degradation at 100 nM (IKZF2) | IKZF2% degradation at 1 μM (IKZF2) | IKZF1% degradation at 100 nM (IKZF1) | IKZF1% degradation at 1 μM (IKZF1) | CK1α % degradation at 100 nM (CK1α) | CK1α % degradation at 1 μM (CK1α) | GSPT1% degradation at 100 nM (GSPT1) | GSPT1% degradation at 1 μM (GSPT1) | degradation activity for CK1α and/or IKZF2, while sparing IKZF1 and/or GSPT1 (in words) (CK1α and/or IKZF2) | also measured
1 | O=C1CCC(N2Cc3cc(CNC(=O)C(F)(F)c4ccc(Cl)cc4)ccc3C2=O)C(=O)N1 (centres unmarked) [CC-90009, reference compound] |  |  |  |  |  |  |  |  |  | EC50 [1]: 269 nM; EC50 (DLBCL cell line OCI-LY3): 36 nM; EC50 [2]: 7 nM
2 | O=C1CCC(N2Cc3cc(NC(=O)c4cccc(Oc5ccccc5)c4)ccc3C2=O)C(=O)N1 (centres unmarked) [DEG-55, N-(2-(2,6-dioxopiperidin-3-yl)-1-oxoisindolin-5-yl)-3-phenoxybenzamide] | 73.9 ± 0.4% | 91.1 ± 0.1% | 62.1 ± 0.2% | 86.8 ± 0.4% | 57.6 ± 1.7% | 67.4 ± 1.4% | 8.8 ± 0.8% | 14 ± 1.8% | good degradation activity | 
3 | COc1cc(C(=O)O)ccc1NC(=O)[C@@H]1N[C@@H](CC(C)(C)C)[C@](C#N)(c2ccc(Cl)cc2F)[C@H]1c1cccc(Cl)c1F [idasanutlin, reference compound] |  |  |  |  |  |  |  |  |  | sensitivity of A2780 cells (in words) [1]: no demonstrable sensitivity; sensitivity of OCI-LY3 cells (in words) (DLBCL cell line OCI-LY3): very limited sensitivity
4 | O=C1CCC(N2Cc3cc(NC(=O)C4=Cc5ccccc5OC4)ccc3C2=O)C(=O)N1 (centres unmarked) [DEG-52, N-(2-(2,6-dioxopiperidin-3-yl)-1-oxoisoindolin-5-yl)-2H-chromene-3-carboxamide] | 83.9 ± 0.4% | 93.8 ± 0.1% | 15.2 ± 0.2% | 29.2 ± 0.5% | 68.4 ± 0.2% | 72.8 ± 0.1% | 10.5 ± 1.7% | 12.2 ± 1.9% | good degradation activity | 
5 | COc1ccc2cc(C(=O)Nc3ccc4c(c3)CN(C3CCC(=O)NC3=O)C4=O)ccc2c1 (centres unmarked) [DEG-35, N-(2-(2,6-dioxopiperidin-3-yl)-1-oxoisoindolin-5-yl)-6-methoxy-2-naphthamide] |  |  |  |  |  |  |  |  |  | EC50 (DLBCL cell line OCI-LY3; Homo sapiens, 120 h): 8 nM; solubility (in words) [3]: limited solubility; IC50 (MOLM-13 cells): 6 nM
6 | COc1ccc2cc(C(=O)Nc3ccc4c(c3)CN(C3CCC(=O)N(C)C3=O)C4=O)ccc2c1 (centres unmarked) [Me-DEG-35, 6-methoxy-N-(2-(1-methyl-2,6-dioxopiperidin-3-yl)-1-oxoisoindolin-5-yl)-2-naphthamide] |  |  |  |  |  |  |  |  |  | sensitivity of A2780 cells (in words) [1]: limited activity; sensitivity of OCI-LY3 cells (in words) (DLBCL cell line OCI-LY3): limited activity

The next lines start with results.

Row | IKZF2% degradation at 100 nM (IKZF2) | IKZF2% degradation at 1 μM (IKZF2) | IKZF1% degradation at 100 nM (IKZF1) | IKZF1% degradation at 1 μM (IKZF1) | CK1α % degradation at 100 nM (CK1α) | CK1α % degradation at 1 μM (CK1α) | GSPT1% degradation at 100 nM (GSPT1) | GSPT1% degradation at 1 μM (GSPT1) | Structure (SMILES) | degradation activity for CK1α and/or IKZF2, while sparing IKZF1 and/or GSPT1 (in words) (CK1α and/or IKZF2) | also measured
7 | 78.4 ± 0.8% | 91.4 ± 0.1% | 5.2 ± 1% | 9.6 ± 0.5% | 60.9 ± 0.7% | 65.8 ± 1.2% | 10.2 ± 2.8% | 16.9 ± 2.3% | O=C1CCC(N2Cc3cc(NC(=O)c4ccc(Oc5ccccc5)cc4)ccc3C2=O)C(=O)N1 (centres unmarked) [DEG-61, N-(2-(2,6-dioxopiperidin-3-yl)-1-oxoisoindolin-5-yl)-4-phenoxybenzamide] | good degradation activity | 
8 | 86.7% | 94.1% | 7.7% | 9.1% | 76.5% | 80.1% | 16.3% | 24.8% | CSc1ccc2cc(C(=O)Nc3ccc4c(c3)CN(C3CCC(=O)NC3=O)C4=O)ccc2c1 (centres unmarked) [DEG-95, N-(2-(2,6-dioxopiperidin-3-yl)-1-oxoisoindolin-5-yl)-6-(methylthio)-2-naphthamide] |  | Dmax (IKZF2): 95.4%; DC50 (IKZF2): 10.4 nM; Dmax (IKZF1): 17.2%; solubility [3]: > 100 mM; Dmax (CK1α): 78.9%; DC50 (CK1α): 2.8 nM; Dmax (GSPT1; Table 3): 33.5%; DC50 (GSPT1; Table 3): 1190 nM
9 | 87.6% | 94.5% | 6.7% | 8.3% | 76.2% | 80.1% | 5.3% | 5.0% | COCOc1ccc2cc(C(=O)Nc3ccc4c(c3)CN(C3CCC(=O)NC3=O)C4=O)ccc2c1 (centres unmarked) [DEG-92, N-(2-(2,6-dioxopiperidin-3-yl)-1-oxoisoindolin-5-yl)-6-(methoxymethoxy)-2-naphthamide] |  | Dmax (IKZF2): 95.9%; DC50 (IKZF2): 7.9 nM; Dmax (IKZF1): 14.5%; solubility [3]: > 100 mM; Dmax (CK1α): 80.2%; DC50 (CK1α): 2.9 nM; Dmax (GSPT1; Table 3): 12.8%
10 | 92.2 ± 0.1% | 94.6 ± 0% | 97.2 ± 0.1% | 98.1 ± 0.1% | 64.4 ± 0.5% | 62.8 ± 0.5% | 25.3 ± 0.5% | 30.9 ± 1% | O=C1CCC(N2Cc3cc(NC(=O)Cc4cccc5ccccc45)ccc3C2=O)C(=O)N1 (centres unmarked) [DEG-67, N-(2-(2,6-dioxopiperidin-3-yl)-1-oxoisoindolin-5-yl)-2-(naphthalen-1-yl)acetamide] | good degradation activity | 
11 | 70.8 ± 0.3% | 89.6 ± 0.1% | 13.1 ± 0.8% | 29.4 ± 0.3% | 60.2 ± 2.3% | 67 ± 1.1% | 7.6 ± 1.5% | 11.1 ± 1.3% | O=C(/C=C/c1ccccc1)Nc1ccc2c(c1)CN(C1CCC(=O)NC1=O)C2=O (centres unmarked) [DEG-56, N-(2-(2,6-dioxopiperidin-3-yl)-1-oxoisoindolin-5-yl)cinnamamide] | good degradation activity | 
12 | 52.6% | 87.1% | 2.4% | 4.1% | 60.1% | 74.1% | 1.6% | −3.4% | CN1C(=O)CCc2cc(C(=O)Nc3ccc4c(c3)CN(C3CCC(=O)NC3=O)C4=O)ccc21 (centres unmarked) [DEG-97, N-(2-(2,6-dioxopiperidin-3-yl)-1-oxoisoindolin-5-yl)-1-methyl-2-oxo-1,2,3,4-tetrahydroquinoline-6-carboxamide] |  | Dmax (IKZF2): 95.9%; DC50 (IKZF2): 83.1 nM; Dmax (IKZF1): 13.1%; solubility [3]: > 100 mM; Dmax (CK1α): 78%; DC50 (CK1α): 32 nM; Dmax (GSPT1; Table 3): 5.6%
13 | 89.4% | 95.3% | 8.5% | 14.4% | 74.6% | 80.3% | 9.7% | 11.5% | N#Cc1ccc2cc(C(=O)Nc3ccc4c(c3)CN(C3CCC(=O)NC3=O)C4=O)ccc2c1 (centres unmarked) [DEG-91, 6-cyano-N-(2-(2,6-dioxopiperidin-3-yl)-1-oxoisoindolin-5-yl)-2-naphthamide] |  | Dmax (IKZF2): 96.6%; DC50 (IKZF2): 7 nM; Dmax (IKZF1): 20.6%; solubility [3]: > 100 mM; Dmax (CK1α): 81.2%; DC50 (CK1α): 2.6 nM; Dmax (GSPT1; Table 3): 14.8%
14 | 79.7 ± 0.1% | 92 ± 0.1% | 13.4 ± 0.6% | 26.5 ± 1.2% | 61.7 ± 2.4% | 63.3 ± 3.9% | 2 ± 3.6% | −1 ± 3.4% | O=C1CCC(N2Cc3cc(NC(=O)c4cc5ccccc5o4)ccc3C2=O)C(=O)N1 (centres unmarked) [DEG-59, N-(2-(2,6-dioxopiperidin-3-yl)-1-oxoisoindolin-5-yl)benzofuran-2-carboxamide] | good degradation activity | 
